Experimental data: publication PMC6271477, “Effects of Single Amino Acid Substitution on the Biophysical Properties and Biological Activities of an Amphipathic α-Helical Antibacterial Peptide Against Gram-Negative Bacteria” (Molecules, 2014)
Values after ≈ are worked out from the molar mass of the structure shown.

Experiments:
human red blood cells = test: Hemolytic activity; assay type: cell-based; conditions: peptide 1,000 μg/mL, 1% human erythrocytes in PBS, 37 °C for 4 h, absorbance at 540 nm, 100% = distilled water
Procedure: Peptide samples were serially diluted using phosphate-buffered saline (PBS) in 96-well plates (round-bottom) to give a volume of 60 μL of the sample solution in each well. Human erythrocytes that had been anticoagulated using EDTAK2 were collected by centrifugation (1,000 ×g) for 5 min, washed twice with PBS, then diluted to a concentration of 2% in PBS. The erythrocytes (60 μL of 2% solution) were added to each well to achieve a final concentration of 1% human erythrocytes per well, and the reactions were incubated at 37 °C for 4 h. The plates were then centrifuged for 10 min at 3000 rpm and the supernatant (80 μL) was transferred to a 96-well plate (flat-bottom). The release of hemoglobin was determined by measuring the absorbance of the supernatant at 540 nm. Peptide samples were diluted in a 2-fold series to determine the minimum concentration at which hemolysis occurred. Erythrocytes in PBS and distilled water were used as controls of 0% and 100% hemolysis, respectively. Hemolysis percentage was calculated by the absorbance of peptide at the concentration of 1,000 μg/mL and compared with the 100% hemolysis.

E. coli DH5α = test: MIC by broth dilution; assay type: cell-based; conditions: MH broth, 5 × 10^5 CFU/mL, 24 h at 37 °C
Procedure: Minimal inhibitory concentrations (MIC) were determined using a broth dilution method. Briefly, bacteria were grown overnight at 37 °C in Mueller–Hinton (MH) Broth, diluted in the same medium and transferred into 96-well microtiter plates (90 μL/well). Peptides were serially diluted using 0.2% bovine serum albumin containing 0.01% acetic acid and added to the microtiter plates in a volume of 10 μL per well to give a final concentration of 5 × 10^5 CFU/mL. MICs were defined as the lowest peptide concentration that inhibited bacterial growth after incubation for 24 h at 37 °C.

[1] = Dansyl-polymyxin B displacement assay (LPS binding affinity); parameters: species or system E. coli; conditions: LPS 3 μg/mL in 5 mM HEPES pH 7.2, 25 °C, fluorescence; result in words, Figure 5
Procedure: As most of the outer membrane is LPS, the affinity of peptide analogs to LPS of E. coli was further detected by dansyl-polymyxin B displacement assay. As it is the polar face of the molecule that binds LPS, and all the peptides V16A, V16S, V16G and P have the same number of positively charged residues on the polar face, they would be expected to have similar effects on LPS affinity (Figure 5).
Dansyl-polymyxin B was synthesized, purified and quantified as reported. It was then dissolved in HEPES buffer (5 mM, pH 7.2) at the concentration of 100 μM and the final concentration of LPS is 3 μg/mL in the same buffer. Fluorescence measurements were run on a Shimadzu RF-5301 spectrofluorometer using a 3 mL quartz cuvette with an excitation wavelength of 350 nm and an emission wavelength of 420 nm at 25 °C. For displacement assay, 15 μL of peptide solution (10 mg/mL) was titrated into the cuvette containing 2 mL LPS and 0.25 mL dansyl-polymyxin B, and the decrease in the observed fluorescence (percent inhibition) was recorded.

In the case of `CC[C@H](C)[C@H](NC(=O)[C@H](C)NC(=O)[C@H](CCCCN)NC(=O)[C@H](CC(C)C)NC(=O)[C@H](C)NC(=O)[C@@H](NC(=O)[C@H](Cc1cnc[nH]1)NC(=O)[C@H](CC(C)C)NC(=O)[C@@H](NC(=O)[C@@H](NC(=O)[C@H](CCCCN)NC(=O)[C@H](CCCCN)NC(=O)[C@H](C)NC(=O)[C@H](CO)NC(=O)[C@H](CCCCN)NC(=O)[C@H](Cc1ccccc1)NC(=O)[C@@H](NC(=O)[C@H](CCCCN)NC(=O)[C@H](CC(C)C)NC(=O)[C@H](Cc1ccccc1)NC(=O)[C@H](CO)NC(=O)[C@H](CCCCN)NC(=O)[C@H](Cc1c[nH]c2ccccc12)NC(=O)[C@H](CCCCN)NC(C)=O)[C@@H](C)O)[C@@H](C)O)C(C)C)[C@@H](C)O)C(=O)N[C@@H](CO)C(=O)N[C@@H](CO)C(N)=O` [P], the “Hemolysis Percentage” value (human red blood cells) is reported as 28.3% and the MIC (E. coli DH5α) is reported as 2 µg/mL (≈ 0.669 µM).
With “Ac-KWKSFLKTFKSAKKTKLHTALKAISS-NH2 [Peptide V16K]” the “Affinity to LPS (inhibition of dansyl-polymyxin B binding)” value [1] was “more affinity than the Ser- or Gly-substituted peptides” and the MIC (E. coli DH5α) was 16 µg/mL.
